The values below come from US4716153A, “Stable oral preparation of macrolide antibiotics and method for stabilizing the same” (priority 1982, dated 1987).

A short description of series [1]: Elution rate in aqueous solutions of various pH and physiological saline solution. It counts as physicochemical. Particulars: for elution rate, pH 1.2, 2 and 3: initial pH 1.2, 2 and 3; for elution rate, pH 1.2, 2 and 3 / elution rate, pH 4 and 5 / elution rate, physiological saline solution: 37° C.; for elution rate, pH 4 and 5: initial pH 4 and 5. The protocol: After 40 ml of Japan Pharmacopoeia 1st solution (pH 1.2) was placed in a vessel whose temperature was kept constant in a thermostat at 37° C., 200 mg of TMS-19-Q was added and the mixture was stirred by a magnetic stirrer. […] Then, Japan Pharmacopoeia 2nd solution were mixed with the 1st solution, and by using aqueous solutions whose pH values were adjusted to be 2, 3, 4 and 5 and a physiological saline solution, respectively, elution rate of each thereof was measured.
To 40 ml of Japan Pharmacopoeia 1st solution (pH 1.2), 120 ml of water was added, and after the solution was kept in a constant temperature bath controlled at 37° C., 200 mg of midecamycin was added, and the mixture was stirred by a magnetic stirrer. Then, 5 ml aliquots of the solution were sampled in a lapse of time (at 5 minutes, 15 minutes and 30 minutes), and absorbances were measured (wavelength: 232 nm) and elution rate were calculated. Then, Japan Pharmacopoeia 1st solution and Japan Pharmacopoeia 2nd solution were mixed to prepare aqueous solutions whose pH values were adjusted to be 2, 3, 4 and 5, respectively. By using these solutions and physiological saline solution, the elution rates were calculated following the same procedures as those indicated above.
By following the same procedures and under the same conditions as those of Example 31, elution rates of 9-propionyljosamycin were measured.
By following the same procedures and under the same conditions as those of Example 31, elution rates of josamycin were measured.
In addition to the conditions of Example 31, Japan Pharmacopoeia 1st solution and Japan Parmacopoeia 2nd solution were mixed to prepare an aqueous solution having pH of 2.5, and following the same procedures as those of Example 31, elution rates of 9,3"-diacetylmidecamycin were measured.

A short description of series [2]: Stability in Japan Pharmacopoeia 1st solution (pH 1.2) at 37° C., with or without stabilizer (TLC densitometry, 232 nm). The series is classed as physicochemical. Particulars: for improvement of stability compared with control, 30 minutes: value at 30 minutes; for stability in 1st solution (in words): 1st solution pH 1.2, no stabilizer; for stability with tri-sodium citrate (in words): 150-300 mg of tri-sodium citrate; for stability with calcium phosphate (in words): 150-400 mg of calcium phosphate; for stability with glycine (in words): 150-900 mg of glycine; for stability with L-aspartic acid monosodium salt (in words): 200-500 mg of Asp.Na; for stability with monosodium glutamate (in words): 200-500 mg of Glu.Na; for degraded at 0.5 h: read-out: decomposites (balance), 30 minutes; for remaining at 0.5 h: read-out: residual amount after contact with 1st solution, 30 minutes; for degraded at 1 h / remaining at 1 h: 60 minutes; for stability with a larger amount of glycine (in words): larger amount of glycine (up to 900 mg). The text has this: The stabilizers showing pH 3-10 used in the invention may be substances having a buffering or antacid action and showing pH 3-10, preferably 5.5-6.5. These are, for example, neutral amino acids or their basic salts, basic salts of acidic amino acids, basic amino acids,basic salts of organic carboxylic acids,basic salts of polybasic organic carboxylic acids, basic salts of uronic acid or inorganic salt antacids. The neutral amino acids or basic salts thereof include glycine, alanine, aminobutyric acid, proline, leucine, isoleucine, methionine, threonine, serine, valine, or their aluminium salts, for example aluminium glycinate. Among these, glycine, alanine and aluminium glycinate, both of which show pH 5.5-6.5, are preferable. The basic salts of acidic amino acid include monobasic salts such as a monosodium, monopotassium or magnesium salt of glutaminic or aspartic acid. Among these monobasic salts, monosodium glutamate or monosodium aspartate is preferable. The basic amino acids include arginine, glutamine, asparagine, citrulin, tryptophane and histidine. Especially, histidine is preferable. The basic salts of monobasic organic carboxylic acid include basic salts such as sodium, potassium, magnesium or aluminium salts of saturated monobasic organic carboxylic acids such as acetic acid and propionic acid, of unsaturated monobasic organic acids such as acrylic acid, crotonic acid and vinylacetic acid, and of other monobasic organic acids such as lactic acid, pyruvic acid, glyceric acid and acetoacetic acid. The basic salts of polybasic organic carboxylic acid include mono-, di- or tri-sodium, potassium, magnesium, calcium or aluminium salts of saturated polybasic organic carboxylic acids such as oxalic acid, malonic acid, succinic acid, glutaric acid, adipic acid and pimelic acid, of unsaturated polybasic organic carboxylic acids such as maleic acid and fumaric acid, and of other polybasic organic carboxylic acids such as meso-oxalic acid, malic acid, oxalacetic acid and citric acid. Among these, trisodium citrate is preferable. The basic salts of uric acids include sodium salts of glucuronic acid, galacturonic acid or their polymers such as alginic acid or peptic acid and dihydroxyaluminium aminoacetate sodium alginate. The inorganic salt antacids include calcium hydrogenphosphate, disodium hydrogenphosphate, dipotassium hydrogenphosphate, magnesium hydrogenphosphate, calcium carbonate, sodium carbonate, potassium carbonate, sodium hydrogen carbonate, aluminium carbonate, magnesium carbonate, potassium metasilicate, magnesium aluminate metasilicate, sodium metasilicate, synthetic aluminium silicate, magnesium silicate, aluminium silicate, magnesium aluminate silicate, magnesium-bismuth aluminate silicate, magnesium oxide, alumina-magnesium hydroxide, magnesium peroxide, magnesium hydroxide, aluminium hydroxide, synthetic hydrotarphite, aluminium phosphate and others. Especially, calcium phosphate and magnesium phosphate are preferable. Each of these stabilizers may be used alone or in the form of a mixture. […] A method for stabilization of 16-membered ring macrolide antibiotics of the present invention will be described in detail. The afore-mentioned various 16-membered ring macrolide antibiotics, for example 9-hydroxy 16-membered ring macrolides such as midecamycin, 3"-propionylleucomycin A5 and josamycin and 9-acyloxy 16-membered ring macrolides such as 9,3"-diacetylmidecamycin and 9-propionyljosamycin show extremely poor residual rates when added to an acidic solution of the Japanese Pharmacopoeia lst liquid (pH 1.2) and allowed to stand. That is, the 9hydroxy 16-membered ring maclorides decompose in a short time to by-produce their iso, demycarosyl and/or isodemycarosyl forms. The 9-acyloxy 16-membered ring macrolides decompose, too, to by-produce their 9-deacyl, 9-deacyl-iso, demycarosyl, 9-deacyl-demycarosyl or 9-deacyl-iso-demycarosyl forms. […]

Where [3] appears, read: solutions whose pH is equal to or less than 4.37.
Setting [4] is: 1st solution pH 1.2, 37° C., 30 minutes, no stabilizer.
[5] abbreviates: jp 1st solution, pH 1.2, 1st solution pH 1.2, 37° C., 30 minutes, no stabilizer.
[6] abbreviates: jp 1st solution, 1st solution pH 1.2, 37° C., 30 minutes, no stabilizer.
[7] abbreviates: jp 1st solution, 1st solution pH 1.2, 37° C., no stabilizer, read-out: decomposites (balance), 60 minutes.
Setting [8] is: jp 1st solution, 1st solution pH 1.2, 37° C., no stabilizer, read-out: residual amount after contact with 1st solution, 60 minutes.

Read-outs that look alike come from different tables or passages of the source. Where only a bound is given, the exact number is not on record here.

`CCC(=O)OC1CC(=O)OC(C)C/C=C/C=C/C(O)C(C)CC(CC=O)C(OC2OC(C)C(OC3CC(C)(O)C(OC(=O)CC)C(C)O3)C(N(C)C)C2O)C1OC` (stereo not drawn) [midecamycin]: in series [1] (after 15-minute stirring), the “elution rate, pH 1.2, 2 and 3” value is not below 95%; the “elution rate, pH 4 and 5” value is on record as 45-60%; the “elution rate, physiological saline solution” value stood at 15%. Besides, in series [1] (general description), the “elution rate in pH 1.2-3 acidic aqueous solution (summary)” value is reported as “more than 95%”, the “elution rate in pH 4-5 weak acidic aqueous solution (summary)” value is listed as “less than 50%” and the “elution rate in physiological saline solution (summary)” value is on record as “less than 15%”. In addition, the “time within which elution was nearly completed” value in series [1] (setting [3]) is not above 15 min. The “improvement of stability compared with control, 30 minutes” value in series [2] (150 mg of glycine) is given as 50%. Further, in series [2] (setting [4]), the “decomposites (balance), 30 minutes” value was determined as 42.6% and the “residual amount after contact with 1st solution, 30 minutes” value is listed as 57.4%. In series [2], the “stability in 1st solution (in words)” value is reported as “extremely unstable” and the “stability with a larger amount of glycine (in words)” value (shortened to “stability with a larger amount”) is listed as “hardly decomposed”. For the same compound, in series [2] (1st solution), the “stability with tri-sodium citrate (in words)” value is listed as “extremely well stabilized”, the “stability with calcium phosphate (in words)” value is given as “extremely well stabilized”, the “stability with glycine (in words)” value was “stabilized well” and the “stability with L-aspartic acid monosodium salt (in words)” value is “very much enhanced”. Also, in series [2] (1st solution), the “stability with monosodium glutamate (in words)” value was “very much enhanced”. In addition, in series [2] (setting [5]), the degraded at 0.5 h was determined as 55% and the remaining at 0.5 h was 45%. The degraded at 1 h in series [2] (jp 1st solution, pH 1.2, 1st solution pH 1.2, 37° C., no stabilizer, read-out: decomposites (balance), 60 minutes) amounted to 65%. Besides, the remaining at 1 h in series [2] (jp 1st solution, pH 1.2, 1st solution pH 1.2, 37° C., no stabilizer, read-out: residual amount after contact with 1st solution, 60 minutes) turned out to be 35%.

For the compound `CCC(=O)O[C@H]1/C=C/C=C/C[C@@H](C)OC(=O)C[C@@H](OC(C)=O)[C@H](OC)[C@@H](O[C@@H]2O[C@H](C)[C@@H](O[C@H]3C[C@@](C)(O)[C@@H](OC(=O)CC(C)C)[C@H](C)O3)[C@H](N(C)C)[C@H]2O)[C@@H](CC=O)C[C@H]1C` [9-propionyljosamycin], in series [1] (after 15-minute stirring), the “elution rate, pH 1.2, 2 and 3” value was not below 95%; the “elution rate, pH 4 and 5” value was 45-55%; the “elution rate, physiological saline solution” value is on record as 10%. Moreover, in series [1] (general description), the “elution rate in pH 1.2-3 acidic aqueous solution (summary)” value is listed as “more than 95%”, the “elution rate in pH 4-5 weak acidic aqueous solution (summary)” value is reported as “less than 50%” and the “elution rate in physiological saline solution (summary)” value is reported as “less than 15%”. In series [1] (setting [3]), the “time within which elution was nearly completed” value was not above 15 min. Moreover, the “improvement of stability compared with control, 60 minutes” value in series [2] (150 mg of glycine, value at 60 minutes) is given as “improved by four times”. Also, in series [2], the “stability in 1st solution (in words)” value is “extremely unstable” and the “stability with a larger amount” value is listed as “hardly decomposed”. In addition, in series [2] (1st solution), the “stability with tri-sodium citrate (in words)” value is reported as “very much enhanced”, the “stability with calcium phosphate (in words)” value was “extremely enhanced”, the “stability with glycine (in words)” value is reported as “stabilized well” and the “stability with L-aspartic acid monosodium salt (in words)” value is on record as “very much enhanced”. In addition, in series [2] (1st solution), the “stability with monosodium glutamate (in words)” value is “very much enhanced”. The degraded at 25 min in series [2] (jp 1st solution, pH 1.2, 1st solution, about 25 minutes, read-out: decomposition in contact with 1st solution) came out at 50%. Besides, in series [2] (setting [6]), the degraded at 0.5 h came out at 55.8% and the remaining at 0.5 h turned out to be 44.2%. The degraded at 1 h in series [2] (setting [7]) is 84.1%. The remaining at 1 h in series [2] (setting [8]) is 15.9%.

As to `CCC(=O)OC1CC(=O)OC(C)C/C=C/C=C/C(OC(C)=O)C(C)CC(CC=O)C(OC2OC(C)C(OC3CC(C)(OC(C)=O)C(OC(=O)CC)C(C)O3)C(N(C)C)C2O)C1OC` (stereo not drawn) [9,3"-diacetylmidecamycin], in series [1] (initial pH 1.2, 2 and 2.5, after 15-minute stirring), the “elution rate, pH 1.2, 2 and 2.5” value is not below 95%. The “elution rate, pH 3” value in series [1] (initial pH 3, after 15-minute stirring) worked out at 50%. The “elution rate, pH 4 and 5 and physiological saline solution” value in series [1] (initial pH 4 and 5 and physiological saline, after 15-minute stirring) was 5-10%. The “elution rate in pH 1.2-2.5 acidic aqueous solution (summary)” value in series [1] (pH 1.2-2.5, general description) is “more than 95%”. In series [1] (general description), the “elution rate in physiological saline solution (summary)” value is on record as “less than 15%”. The “time within which elution was nearly completed” value in series [1] (solutions whose final pH is equal to or less than 3.77) is not above 15 min. In addition, the “improvement of stability compared with control, 30 minutes” value in series [2] (150 mg of glycine) came out at 60%. In series [2], the “stability in 1st solution (in words)” value is given as “extremely unstable” and the “stability with a larger amount” value is “hardly decomposed”. Further, in series [2] (1st solution), the “stability with tri-sodium citrate (in words)” value was “very much enhanced”, the “stability with calcium phosphate (in words)” value is given as “extremely enhanced”, the “stability with glycine (in words)” value is on record as “stabilized well” and the “stability with L-aspartic acid monosodium salt (in words)” value is listed as “very much enhanced”. The “stability with monosodium glutamate (in words)” value in series [2] (1st solution) is given as “very much enhanced”. For the same compound, in series [2] (setting [6]), the degraded at 0.5 h was found to be 50.6% and the remaining at 0.5 h amounted to 49.4%. For the same compound, the degraded at 1 h in series [2] (setting [7]) came to 75.5%. The remaining at 1 h in series [2] (setting [8]) was 24.5%.

With `CO[C@@H]1[C@@H](O[C@@H]2O[C@H](C)[C@@H](O[C@H]3C[C@@](C)(O)[C@@H](OC(=O)CC(C)C)[C@H](C)O3)[C@H](N(C)C)[C@H]2O)[C@@H](CC=O)C[C@@H](C)[C@@H](O)/C=C/C=C/C[C@@H](C)OC(=O)C[C@H]1OC(C)=O` [josamycin], in series [1] (after 15-minute stirring), the “elution rate, pH 1.2, 2 and 3” value is on record as not below 95%; the “elution rate, pH 4 and 5” value was 50-60%; the “elution rate, physiological saline solution” value is 15%. In series [1] (general description), the “elution rate in pH 1.2-3 acidic aqueous solution (summary)” value was “more than 95%”, the “elution rate in pH 4-5 weak acidic aqueous solution (summary)” value is “less than 50%” and the “elution rate in physiological saline solution (summary)” value is on record as “less than 15%”. Moreover, the “time within which elution was nearly completed” value in series [1] (solutions whose pH is equal to or less than 4.35) is not above 15 min. Besides, the “improvement of stability compared with control, 30 minutes” value in series [2] (150 mg of glycine) came to 30%. Also, the degraded at 1 h in series [2] (jp 1st solution, pH 1.2, decomposites (balance)) came to 53.3%. The same compound registered a remaining at 1 h in series [2] (jp 1st solution, pH 1.2, residual amount after contact with 1st solution) of 46.7%.
